From paper PMC5384001 (Scientific Reports, 2017)

How the values were obtained:
[1] = molecular target: T1, GluD2-(H)GluN1 (Rattus norvegicus, UniProt Q63226, A766F/D542Y/D767R/N763E/R768S/S544G/T764L/V761T/V765F/Y543Q); assay: Two-electrode voltage clamp in Xenopus oocytes, current response; assay type: cell-based
T1 construct: have an effect on the function of full-length receptors as well; expressed in transfected cells; host or cells: Xenopus laevis oocytes injected with cRNA
T1 sequence (Q63226 24-1007 D542Y/Y543Q/S544G/V761T/N763E/T764L/V765F/A766F/D767R/R768S): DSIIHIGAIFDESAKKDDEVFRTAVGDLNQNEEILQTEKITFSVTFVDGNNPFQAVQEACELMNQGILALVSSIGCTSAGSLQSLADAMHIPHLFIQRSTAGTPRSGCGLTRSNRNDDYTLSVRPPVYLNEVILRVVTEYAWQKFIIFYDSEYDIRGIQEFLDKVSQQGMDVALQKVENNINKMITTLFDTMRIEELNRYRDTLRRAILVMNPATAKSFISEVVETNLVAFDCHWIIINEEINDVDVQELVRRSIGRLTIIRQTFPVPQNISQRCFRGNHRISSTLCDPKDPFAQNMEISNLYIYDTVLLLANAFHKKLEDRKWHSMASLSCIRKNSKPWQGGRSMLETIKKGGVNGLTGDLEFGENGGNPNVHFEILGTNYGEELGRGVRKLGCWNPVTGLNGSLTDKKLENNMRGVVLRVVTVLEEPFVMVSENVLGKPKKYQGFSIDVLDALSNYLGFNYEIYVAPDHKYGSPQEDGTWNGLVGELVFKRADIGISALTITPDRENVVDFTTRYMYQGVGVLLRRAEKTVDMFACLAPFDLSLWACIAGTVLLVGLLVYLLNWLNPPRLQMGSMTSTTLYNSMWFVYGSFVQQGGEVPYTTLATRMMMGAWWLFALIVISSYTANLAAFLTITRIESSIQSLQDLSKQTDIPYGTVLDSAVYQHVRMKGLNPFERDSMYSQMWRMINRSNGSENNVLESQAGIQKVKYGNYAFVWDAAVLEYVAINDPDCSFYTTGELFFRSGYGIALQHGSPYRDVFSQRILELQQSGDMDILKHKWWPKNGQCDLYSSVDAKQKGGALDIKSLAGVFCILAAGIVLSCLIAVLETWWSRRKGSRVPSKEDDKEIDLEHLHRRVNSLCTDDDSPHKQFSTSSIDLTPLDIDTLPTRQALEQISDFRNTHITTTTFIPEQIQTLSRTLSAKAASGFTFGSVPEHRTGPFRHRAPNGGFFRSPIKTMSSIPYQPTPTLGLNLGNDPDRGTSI
Description: (§1) Oocytes were obtained by surgically removing parts of the ovaries from Xenopus laevis (Nasco, Fort Atkinson, WI, USA) anaesthetised with 1.5 g/L 3-aminobenzoic acid ethylester (Sigma, Taufkirchen, Germany). The ovary clippings were digested with 784 U/mL (4 mg/mL) collagenase type I (Worthington, Lakewood, NJ, USA) in Ca^2+-free Barth’s solution (88 mM NaCl, 1.1 mM KCl, 2.4 mM NaHCO3, 0.8 mM MgSO4, 15 mM HEPES-NaOH, pH 7.6) with gentle agitation for 1.5–2 h at 20 °C to remove the follicular cell layer. After stopping the collagenase digestion by washing with Barth’s solution (88 mM NaCl, 1.1 mM KCl, 2.4 mM NaHCO3, 0.3 mM Ca(NO3)2, 0.4 mM CaCl2, 0.8 mM MgSO4, 15 mM HEPES-NaOH, pH 7.6), defolliculated oocytes of stages V and VI were selected and maintained at 16 °C in Barth’s solution supplemented with 100 μg/mL gentamicin, 40 μg/mL streptomycin, and 63 μg/mL penicillin. Oocytes were injected with 11 ng cRNA (10 ng of each cRNA for co-expression of GluN1 and GluN2A) using a nanoliter injector (WPI, Sarasota, FL, USA). Four days after cRNA injection, current responses were recorded under voltage clamp at –70 mV with a Turbo Tec-10CD amplifier (npi electronic, Tamm, Germany) controlled by Patchmaster software (HEKA, Lambrecht, Germany). Currents were filtered with a 20 Hz low-pass filter and then digitised with a sampling rate of 50 Hz. Recording electrodes were pulled from borosilicate glass (Hilgenberg, Malsfeld, Germany) with an L/M-3P-A vertical pipette puller (List-Medical), filled with 3 M KCl, and had resistances of 0.5–5 MΩ (voltage electrode) or 0.5–1.5 MΩ (current electrode). Recordings were performed in a 50 μL chamber under constant superfusion with extracellular solution at a flow rate of 3–5 mL/min. […] Finally, Ba-NFR and then NMDGR were applied again to check for reversibility.

[2] = molecular target: T2, GluN1-1a-(H)GluD2 with GluN2A (Rattus norvegicus, UniProt P35439, E751N/F753V/F754A/G537S/L752T/Q536Y/R755D/S756R/T749V/Y535D); assay: as above; assay type: cell-based; conditions: 100 μM glutamate plus 1 mM D-serine, n = 23
T2 construct: expressed in transfected cells; host or cells: Xenopus laevis oocytes injected with cRNA
Description: as §1

[3] = molecular target: GluN3B LBD; parameters: method as in PMID 18636091; conditions: cited from earlier work
[4] = test system: parallel fiber EPSCs; conditions: inhibitory effect on parallel fiber EPSCs; read-out: apparent EC50; cited from earlier work

## N[C@H](CO)C(=O)O [D-serine]
[1]; 10 μM D-serine, n = 14
  current response: 1.1 ± 0.6 nA
[1]; 1 mM D-serine, n = 22
  current response: 2.3 ± 0.4 nA
[2]
  current response: 5.8 ± 1.0 nA
[3]
  Kd: 163 nM
[4]
  EC50: 147 µM
